From patent US20260266828A1, “BIOMARKERS FOR PREDICTING CANCER TREATMENT EFFICACY” (Arcus Biosciences, Inc., priority 2023, published 2026)

Assays:
MC38 cells [1] = experiment: In vitro oxaliplatin treatment of MC38 cells, flow cytometry of PD-L1 and CD155; assay type: cell-based, mouse; details: dying cells, ≥1 μM, 22 h
Experimental: (§1) Lines and error represent the mean±standard deviation (SD) of biological triplicates. […] In FIG. 5B and FIG. 5C, lines and error represent the mean±SD of biological duplicates.
(§2) For flow cytometry, MC38 cells were plated in supplemented RPMI medium at 1×10^5 cells/well in a 12-well tissue culture plate. For CellTiter-Glo (Promega) analysis, cells were plated in supplemented RPMI medium at 5×10^3 cells/well in a 96-well white flat-bottom tissue culture plate. […] Data were normalized to PBS treated cells. For flow cytometry, cells were harvested using a cell scraper, and transferred into a 96-well round-bottom plate for staining. Cells were washed, incubated with live-dead aqua and anti-mouse CD16/CD32 Fc block at RT followed by cell surface staining with anti-mouse PD-L1 BV711 (clone MIH4, BD Biosciences) and anti-mouse CD155 BUV395 (clone 3F1, BD Biosciences) at 4° C. Cells were washed, fixed with IC fixation buffer (Invitrogen) at RT, washed again, and resuspended in PBS for flow cytometry.

MC38 tumors = experiment: Flow cytometry phenotyping of MC38 tumors and tdLN after treatment; assay type: in vivo, mouse; details: three days after the first OXA exposure
Experimental: Methods—Mouse tumor-infiltrating lymphocyte and lymph node phenotyping. MC38 tumors were minced with scissors and dissociated with tumor digestion buffer [RPMI 1640 supplemented with 20% FBS, 0.25 mg/mL Collagenase D (Roche), and 100 KUnits/mL Type IV DNase I (Sigma-Aldrich)]. Single-cell tumor suspensions were passed through a 70 μm cell strainer and washed. Inguinal lymph nodes were collected from the same side as the tumor (tumor-draining lymph node, tdLN), minced, passed through a 70 μm cell strainer and washed. A total of 1×10^6 tumor or lymph node cells per well were incubated at room temperature (RT) with live-dead NIR (Invitrogen) and anti-mouse CD16/CD32 Fc block (BD Biosciences). For p15E tetramer staining, cells were washed and incubated with tetramer at RT. Cells were stained for surface and intracellular markers and analyzed by flow cytometry as indicated above.
In vivo experiments were performed at Arcus Biosciences in accordance with federal, state, and institutional guidelines and were approved by Arcus Biosciences' Institutional Animal Care and Use Committee. Female 6-8 week old C57BL/6J mice were purchased from Charles River Laboratories. Mice were injected subcutaneously on the right flank with 1×10^6 MC38 cells in 100 μL PBS. Once tumors were established (sized indicated in figure legends), mice were randomized into groups based on tumor size distribution. […] The dosing regimens for anti-PD-1 and anti-TIGIT were determined via receptor occupancy (RO) assays using commercially available a competitive anti-TIGIT antibody (clone GIGD7), a non-competitive PD-1 antibody (clone J43) as well as direct detection of both anti-TIGIT and anti-PD-1 via secondary antibody (Jackson Immunoresearch anti-mouse IgG, Fcγ subclass 2a specific). The dosing regimen for FTY720 was determined in naïve C57BL/6 females by examining lymphocyte frequencies and numbers in the blood 24 h after dosing. Tumor volume was monitored with digital calipers and volume was calculated using the formula: (Length×Width^2)/2. […]

MC38 cells [2] = details: 1 μM, 72 hours
Experimental: as §1, §2

[3] = tested on: first line (1L) metastatic NSCLC; experiment: Real-world progression free survival analysis by CD155 gene expression, de-identified health records; assay type: in vivo, human
Description: This example retrospectively evaluated the predictive value of CD155 expression for a clinical outcome using real-world data. […] Real-world progression free survival (rwPFS) is defined in this study as the time from treatment initiation until the first occurrence of progressive disease (PD) or death up to the end date of the same line of therapy. […] Otherwise, patients were censored at the last known follow up time. rwPFS is right censored at 36 months. The analysis was performed using de-identified health records of first line (1L) metastatic NSCLC patients treated with chemotherapy only, treated with pembrolizumab monotherapy, or treated with chemotherapy and pembrolizumab. A filter was applied to select for records where biopsies were obtained ≤12 months prior to the first dose of treatment. Records were excluded if the patient had EGF or ALK alterations.
The health records for each patient included information such as sex, race, smoking status, biopsy site, stage at time of diagnosis, subtype of lung cancer (adenocarcinoma or squamous cell carcinoma), tumor purity, PD-L1 expression, treatment (chemotherapy, pembrolizumab, or chemotherapy+pembrolizumab), clinical outcome, etc., as well as gene expression data for a number of targets (e.g., TIGIT, CD155, CD73). Chemotherapy for adenocarcinomas was cisplatin or carboplatin+pemetrexed. Chemotherapy for squamous cell carcinomas was either carboplatin and paclitaxel or nab-paclitaxel. Gene expression was quantified from RNA-seq data as transcript per million (tpm). Kaplan-Meier models were performed by gene and according to the following breakdowns: NSCLC subtype (all; adenocarcinoma only; squamous cell carcinoma only), PD-L1 expression (all; <1% TPS; 1-49% TPS; ≥50% TPS), and treatment (chemotherapy only, pembrolizumab only, chemotherapy and pembrolizumab). Results presented as Kaplan-Meier (KM) plots splitting high and low gene expressors into different groups, whereby high gene expression was defined as expression equal to or greater than a cut-off value determined by one of several threshold methodologies (e.g., median, 1st tertile (1st third vs last two thirds), 2nd tertile (two thirds vs. last third) and MaxStat (an outcome-oriented method providing a value of a cutpoint that corresponds to the most significant relation with outcome). Cox Proportional-Hazards tests were used to assess the effect of gene expression as a continuous variable, and hazard ratios were provided with each KM plot using the low gene expressor group as a reference.

[4] = biological target: T1, FcγR-IIIA (V158 high-affinity variant) (Homo sapiens, UniProt P08637, F176V); parameters: dose or concentration left out as unconfirmed; details: cited from earlier work
T1 construct: expressed in transfected cells
T1 sequence (P08637 17-254 F176V): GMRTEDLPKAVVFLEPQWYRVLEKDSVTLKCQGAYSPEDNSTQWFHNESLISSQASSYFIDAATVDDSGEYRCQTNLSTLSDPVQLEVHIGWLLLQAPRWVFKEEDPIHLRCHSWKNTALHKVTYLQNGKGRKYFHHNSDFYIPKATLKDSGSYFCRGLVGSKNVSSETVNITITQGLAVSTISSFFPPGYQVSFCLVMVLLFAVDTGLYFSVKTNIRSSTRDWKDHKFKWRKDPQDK

[5] = tested on: Jurkat cell line stably overexpressing human TIGIT; details: increasing concentrations up to 33 nM; cited from earlier work
[6] = tested on: FcγR isotypes I, IIA, JIB, IIIA, and IIIB; parameters: dose or concentration left out as unconfirmed; details: compared with wild-type IgG1 control antibody; cited from earlier work

## O=C1[O][Pt]2([NH][C@@H]3CCCC[C@H]3[NH]2)[O]C1=O [OXA, oxaliplatin]
MC38 cells [1]
  expression of PD-L1 and CD155 ligands: increased expression
MC38 tumors
  TCF-1 positivity in tumoral CD8+ T cells: increase
  intratumoral monocytes: decreases
  tumor neutrophils: increase
MC38 cells [2]
  cancer cell death: ~100%

## pembrolizumab
[3]; CD155 High, threshold method Median, PD-L1 TPS 1-49%
  Median real-world progression-free survival (rwPFS): 5.4 mo
[3]; CD155 High, threshold method Median, PD-L1 TPS <1%
  Median real-world progression-free survival (rwPFS): 13.8 mo
[3]; CD155 High, threshold method Median, PD-L1 TPS All
  Median real-world progression-free survival (rwPFS): 7.67 mo
[3]; CD155 High, threshold method Median, PD-L1 TPS ≥50%
  Median real-world progression-free survival (rwPFS): 8.53 mo
[3]; CD155 High, threshold method q33, PD-L1 TPS 1-49%
  Median real-world progression-free survival (rwPFS): 4.63 mo
[3]; CD155 High, threshold method q33, PD-L1 TPS <1%
  Median real-world progression-free survival (rwPFS): 8.1 mo
[3]; CD155 High, threshold method q33, PD-L1 TPS All
  Median real-world progression-free survival (rwPFS): 8.07 mo
[3]; CD155 High, threshold method q33, PD-L1 TPS ≥50%
  Median real-world progression-free survival (rwPFS): 8.63 mo
[3]; CD155 High, threshold method q67, PD-L1 TPS 1-49%
  Median real-world progression-free survival (rwPFS): 3.93 mo
[3]; CD155 High, threshold method q67, PD-L1 TPS <1%
  Median real-world progression-free survival (rwPFS): 13.8 mo
[3]; CD155 High, threshold method q67, PD-L1 TPS All
  Median real-world progression-free survival (rwPFS): 7.03 mo
[3]; CD155 High, threshold method q67, PD-L1 TPS ≥50%
  Median real-world progression-free survival (rwPFS): 7.23 mo
[3]; CD155 Low, threshold method Median, PD-L1 TPS 1-49%
  Median real-world progression-free survival (rwPFS): 6.2 mo
[3]; CD155 Low, threshold method Median, PD-L1 TPS <1%
  Median real-world progression-free survival (rwPFS): 8.1 mo
[3]; CD155 Low, threshold method Median, PD-L1 TPS All
  Median real-world progression-free survival (rwPFS): 10.3 mo
[3]; CD155 Low, threshold method Median, PD-L1 TPS ≥50%
  Median real-world progression-free survival (rwPFS): 14.1 mo
[3]; CD155 Low, threshold method q33, PD-L1 TPS 1-49%
  Median real-world progression-free survival (rwPFS): 9.67 mo
[3]; CD155 Low, threshold method q33, PD-L1 TPS <1%
  Median real-world progression-free survival (rwPFS): 8.1 mo
[3]; CD155 Low, threshold method q33, PD-L1 TPS All
  Median real-world progression-free survival (rwPFS): 13.3 mo
[3]; CD155 Low, threshold method q33, PD-L1 TPS ≥50%
  Median real-world progression-free survival (rwPFS): 17.1 mo
[3]; CD155 Low, threshold method q67, PD-L1 TPS 1-49%
  Median real-world progression-free survival (rwPFS): 7.1 mo
[3]; CD155 Low, threshold method q67, PD-L1 TPS <1%
  Median real-world progression-free survival (rwPFS): 8.1 mo
[3]; CD155 Low, threshold method q67, PD-L1 TPS All
  Median real-world progression-free survival (rwPFS): 9.67 mo
[3]; CD155 Low, threshold method q67, PD-L1 TPS ≥50%
  Median real-world progression-free survival (rwPFS): 11.7 mo

B1: domvanalimab (antibody, chains of the INN, looked up, V domains shown)
VH: EVQLVESGGGLVQPGGSLRLSCAASGFTFSNFGMHWVRQAPGKGLEWVAFISSGSSSIYYADTVKGRFTISRDNAKNSLYLQMNSLRAEDTAVYYCARMRLDYYAMDYWGQGTMVTVSS
VL: DIQMTQSPSSLSASVGDRVTITCRASKSISKYLAWYQQKPGKAPKLLIYSGSTLQSGVPSRFSGSGSGTDFTLTISSLQPEDFATYYCQQHNEYPWTFGGGTKVEIK
notes: Fc-silent anti-TIGIT antibody with engineered IgG1 Fc
[4]
  activity in FcγR-IIIA effector reporter bioassay: inactive
[5]
  complement dependent cytotoxicity: No cytotoxicity
[6]
  binding to FcγR isotypes: no significant binding
